Experimental data reported in patent US20060014949A1 (SuperGen Inc., priority 2004, published 2006).
Converted amounts (≈) assume the structure as drawn.

Experiments:
Assay type in all cases: physicochemical
[1] = Thermogravimetric analysis (TGA)
Description: Thermogravimetric analysis (TGA) was carried out on TA Instruments TGA 2050 or 2950. The calibration standards were nickel and Alumel™. Samples were placed on a clean, aluminum sample pan, accurately weighed, and inserted into the TGA furnace. The samples were heated in nitrogen at a rate of 10° C./min, from 35° C. to a final temperature of 250° C.

[2] = Moisture sorption/desorption analysis (VTI SGA-100); conditions: for solid form after moisture sorption/desorption analysis: after sorption/desorption cycle
Description: Moisture sorption/desorption data were collected on a VTI SGA-100 Vapor Sorption Analyzer. Sorption and desorption data were collected over a range of 5 to 95% relative humidity (RH) at 10% RH increments under a nitrogen purge. Sodium chloride (NaCl) and polyvinylpyrrolidone (PVP) were used as the calibration standards. Equilibrium criteria used for analysis were less than 0.0100% weight change in 5 minutes, with a maximum equilibration time of 180 minutes if the weight criterion was not met. Data collected were not corrected for the initial moisture content of the samples.

[3] = Relative humidity stress experiments, XRPD after storage over saturated salt solutions
Description: In relative humidity (RH) stress analysis, open vials containing solid samples were placed inside chambers containing saturated salt solutions along with a small amount of the undissolved salt. The chambers were sealed and allowed to stand at ambient temperature for several days. Samples were analyzed by X-ray powder diffraction (XRPD) immediately after removing the sample from the RH chamber. The RH values these salt solutions were obtained from an ASTM standard.

[4] = Solid-state stress (compression, heating, grinding, storage) with XRPD form check
Description: X-ray powder diffraction analyses were carried out on a Shimadzu XRD-6000 X-ray powder diffractometer using Cu Kα radiation having a wavelength of 1.5406 Å. The instrument is equipped with a fine-focus X-ray tube. The tube power was set by setting potential difference at 40 kV, and current 40 mA. The divergence and scattering slits were set at 1° and the receiving slit was set at 0.15 mm. Diffracted radiation was detected by a NaI scintillation detector. A theta-two theta continuous scan at 3°/min (0.4 sec/0.02° step) from 2.5 to 40 °2θ was performed. A silicon standard was analyzed each day to check the instrument alignment. Each sample was analyzed in a quartz sample holder. A variable temperature (VT-XRPD) experiment was performed on one form. The sample was prepared for analysis by pressing it into a variable temperature holder.

[5] = Approximate solubility by solvent aliquot addition, visual inspection; conditions: thermodynamic from solid
Description: Solvents were either reagent or HPLC grade. The aliquots were typically either 100 μL or 1 mL. Between additions, the mixture was typically shaken or sonicated. Whether the solids dissolved was judged by visual inspection. Solubilities were estimated from these experiments based on the total solvent used to provide complete dissolution.
Solubilities were estimated from these experiments based on the total solvent used to give a solution. Duplicate runs were averaged.

In the case of Nc1ncn([C@H]2C[C@H](O)[C@@H](CO)O2)c(=O)n1 [Form C], the “TGA Results: percent weight change from 25 to 150° C.” value (“TGA Results: percent weight change” for short) ([1]; listed as C) was 1.2%, the “TGA Results: percent weight change” value ([1]; listed as form C) was “approximately 1.2%” and the “TGA weight loss at about 150° C.” value ([1]; sample prepared by vacuum evaporation of a solution in water (sample no. 1029-65-05)) was about 7.2%. The “TGA weight loss at about 150° C.” value ([1]; weight equilibrium event at 25° C. omitted from the TGA method) was “approximately 3.2%”, the “total weight gain from 5 to 95% RH” value ([2]; 5 to 95% RH) was about 13% and the “solid form after moisture sorption/desorption analysis” value ([2]; listed as form C) was “converts to form B”. The “weight (water) lost upon equilibration to 5% RH” value (“weight … to 5% RH” for short) [2] was 1.4%, the “weight … to 5% RH” value ([2]; listed as form C) was “approximately 1.4%” and the XRPD result ([3]; Magnesium Chloride, 33.1 % RH @ 20° C., 28 days) was “remained unchanged”. For the same molecule, the XRPD result ([3]; Potassium Acetate, 23.1 % RH @ 20° C., 25 days) was “converted from form C to form B” and the XRPD result ([3]; Potassium Chloride, 85.1 % RH @ 20° C., 28 days) was “converted from form C to form B”.
In the case of Nc1ncn([C@H]2C[C@H](O)[C@@H](CO)O2)c(=O)n1 [Decitabine, 5-aza-2′-deoxycytidine], the “XRPD Pattern” value ([4]; no solvent, Hydraulic Press 10,000 lbs ~3 min) was “A + 1 peak”, the solubility ([5]; 1,1,1,3,3,3-hexafluoro-2-propanol, organic solvent or mixture, solvent 1,1,1,3,3,3-Hexafluoro-2-propanol) was about 18000 µg/mL (≈ 78.9 mM) and the solubility ([5]; 1,1,1-trichloroethane, organic solvent or mixture, solvent 1,1,1-Trichloroethane) was under 1000 µg/mL. For the same molecule, the solubility ([5]; 1,4-dioxane, organic solvent or mixture, solvent 1,4-Dioxane) was under 2000 µg/mL, the solubility ([5]; 2-butanone, organic solvent or mixture, solvent 2-Butanone) was under 1000 µg/mL and the solubility ([5]; 2-propanol, organic solvent or mixture, solvent 2-Propanol) was under 1000 µg/mL. It also gave a solubility ([5]; acetone, organic solvent or mixture, solvent Acetone) of under 1000 µg/mL, a solubility ([5]; acetonitrile, organic solvent or mixture, solvent Acetonitrile) of under 1000 µg/mL and a solubility ([5]; chloroform, organic solvent or mixture, solvent Chloroform) of under 1000 µg/mL. The solubility ([5]; dichloromethane, organic solvent or mixture, solvent Dichloromethane) was under 1000 µg/mL, the solubility ([5]; dichloromethane:ethanol (1:1), organic solvent or mixture, solvent Dichloromethane:Ethanol (1:1)) was under 1000 µg/mL and the solubility ([5]; dichloromethane:methanol (1:1), organic solvent or mixture, solvent Dichloromethane:Methanol (1:1)) was over 1000 µg/mL. It also gave a solubility ([5]; diethylamine, organic solvent or mixture, solvent Diethylamine) of under 1000 µg/mL, a solubility ([5]; ethyl acetate, organic solvent or mixture, solvent Ethyl Acetate) of under 1000 µg/mL and a solubility ([5]; ethyl ether, organic solvent or mixture, solvent Ethyl Ether) of under 1000 µg/mL. For the same molecule, the solubility ([5]; hexanes, organic solvent or mixture, solvent Hexanes) was under 1000 µg/mL, the solubility ([5]; methanol:2,2,2-trifluoroethanol (1:1), organic solvent or mixture, solvent Methanol:2,2,2-Trifluoroethanol (1:1)) was over 1000 µg/mL and the solubility ([5]; methanol:water (1:1), aqueous with cosolvent or surfactant or cyclodextrin, solvent Methanol:Water (1:1)) was 4000 µg/mL (≈ 17.5 mM). For the same molecule, the solubility ([5]; methyl sulfide, organic solvent or mixture, solvent Methyl Sulfide) was under 1000 µg/mL, the solubility ([5]; methyl sulfoxide, organic solvent or mixture, solvent Methyl Sulfoxide) was about 37000 µg/mL (≈ 162 mM) and the solubility ([5]; nitromethane, organic solvent or mixture, solvent Nitromethane) was under 1000 µg/mL. It also gave a solubility ([5]; tetrahydrofuran, organic solvent or mixture, solvent Tetrahydrofuran) of under 1000 µg/mL, a solubility ([5]; toluene, organic solvent or mixture, solvent Toluene) of under 1000 µg/mL and a solubility ([5]; water, solvent Water) of about 8000 µg/mL (≈ 35.1 mM).
In the case of Nc1ncn([C@H]2C[C@H](O)[C@@H](CO)O2)c(=O)n1.O [Form B], the “XRPD Pattern” value ([4]; Post TGA @ 150° C. 10 min (dry nitrogen)) was “converts to form A”, the “form change in VT-XRPD experiment” value ([4]; heated in the presence of air) was “converted to a mixture of forms B and C” and the “form change on storage” value ([4]; vacuum oven at room temperature for 6 days) was “converts to form C”. The “TGA Results: percent weight change” value ([1]; listed as B) was 7.212%, the “TGA Results: percent weight change” value ([1]; listed as form B) was 7.2% and the “water regained at 95% RH” value ([2]; 95% RH) was 0.09%. For the same molecule, the Weight % chg ([2]; Table 5, desorption, RH 4.98 %, 25.07 deg C, 854.2 min) was −2.2984%, the Weight % chg ([2]; Table 5, desorption, RH 15.05 %, 25.07 deg C, 672.3 min) was 0.0005% and the Weight % chg ([2]; Table 5, desorption, RH 25.12 %, 25.06 deg C, 665.2 min) was 0.0098%. The Weight % chg ([2]; Table 5, desorption, RH 35.00 %, 25.07 deg C, 658.2 min) was 0.0184%, the Weight % chg ([2]; Table 5, desorption, RH 45.01 %, 25.06 deg C, 650.7 min) was 0.0274% and the Weight % chg ([2]; Table 5, desorption, RH 55.06 %, 25.06 deg C, 643.2 min) was 0.0357%. For the same molecule, the Weight % chg ([2]; Table 5, desorption, RH 65.04 %, 25.07 deg C, 635.7 min) was 0.0439%, the Weight % chg ([2]; Table 5, desorption, RH 75.10 %, 25.06 deg C, 627.7 min) was 0.0553% and the Weight % chg ([2]; Table 5, desorption, RH 85.33 %, 25.07 deg C, 619.7 min) was 0.0688%. For the same molecule, the Weight % chg ([2]; Table 5, sorption, RH 4.98 %, 25.06 deg C, 185.1 min) was −2.3894%, the Weight % chg ([2]; Table 5, sorption, RH 15.24 %, 25.07 deg C, 193.2 min) was −2.4118% and the Weight % chg ([2]; Table 5, sorption, RH 24.84 %, 25.07 deg C, 242.2 min) was −2.2223%. For the same molecule, the Weight % chg ([2]; Table 5, sorption, RH 35.00 %, 25.06 deg C, 384.9 min) was −1.2517%, the Weight % chg ([2]; Table 5, sorption, RH 44.84 %, 25.06 deg C, 499.6 min) was −0.5520% and the Weight % chg ([2]; Table 5, sorption, RH 54.81 %, 25.07 deg C, 556.5 min) was −0.1535%. The Weight % chg ([2]; Table 5, sorption, RH 65.01 %, 25.07 deg C, 579.8 min) was −0.0371%, the Weight % chg ([2]; Table 5, sorption, RH 74.89 %, 25.08 deg C, 592.3 min) was 0.0119% and the Weight % chg ([2]; Table 5, sorption, RH 84.81 %, 25.08 deg C, 601.5 min) was 0.0426%. It also gave a Weight % chg ([2]; Table 5, sorption, RH 94.59 %, 25.09 deg C, 613.0 min) of 0.0851%, a Weight % chg ([2]; Table 5, start, RH 2.15 %, 25.08 deg C, 0.0 min) of 0.0000% and a Weight % chg ([2]; Table 7, desorption, RH 4.96 %, 25.03 deg C, 887.7 min) of −1.6786%. It also gave a Weight % chg ([2]; Table 7, desorption, RH 14.79 %, 25.03 deg C, 771.0 min) of 6.1361%, a Weight % chg ([2]; Table 7, desorption, RH 24.87 %, 25.03 deg C, 758.6 min) of 6.2283% and a Weight % chg ([2]; Table 7, desorption, RH 35.04 %, 25.03 deg C, 749.3 min) of 6.3408%. The Weight % chg ([2]; Table 7, desorption, RH 45.13 %, 25.02 deg C, 739.6 min) was 6.4585%, the Weight % chg ([2]; Table 7, desorption, RH 54.99 %, 25.02 deg C, 725.7 min) was 6.6172% and the Weight % chg ([2]; Table 7, desorption, RH 65.12 %, 25.03 deg C, 711.7 min) was 6.8321%. It also gave a Weight % chg ([2]; Table 7, desorption, RH 75.27 %, 25.03 deg C, 697.2 min) of 7.1750%, a Weight % chg ([2]; Table 7, desorption, RH 85.18 %, 25.03 deg C, 673.5 min) of 7.9222% and a Weight % chg ([2]; Table 7, sorption, RH 4.95 %, 25.07 deg C, 47.5 min) of −1.4176%. For the same molecule, the Weight % chg ([2]; Table 7, sorption, RH 14.98 %, 25.08 deg C, 60.6 min) was −1.3613%, the Weight % chg ([2]; Table 7, sorption, RH 24.93 %, 25.08 deg C, 73.7 min) was −1.2692% and the Weight % chg ([2]; Table 7, sorption, RH 35.04 %, 25.08 deg C, 94.3 min) was −0.8649%. For the same molecule, the Weight % chg ([2]; Table 7, sorption, RH 44.87 %, 25.08 deg C, 116.7 min) was −0.4555%, the Weight % chg ([2]; Table 7, sorption, RH 55.02 %, 25.05 deg C, 298.7 min) was 3.5457% and the Weight % chg ([2]; Table 7, sorption, RH 65.01 %, 25.05 deg C, 385.9 min) was 6.2129%. The Weight % chg ([2]; Table 7, sorption, RH 74.94 %, 25.05 deg C, 413.2 min) was 6.6223%, the Weight % chg ([2]; Table 7, sorption, RH 85.01 %, 25.05 deg C, 456.7 min) was 7.2160% and the Weight % chg ([2]; Table 7, sorption, RH 95.15 %, 25.03 deg C, 640.2 min) was 11.2538%. The Weight % chg ([2]; Table 7, start, RH 2.94 %, 25.07 deg C, 0.0 min) was 0.0000%, the “solid form after moisture sorption/desorption analysis” value [2] was “a mixture of forms B and form C” and the “weight … to 5% RH” value [2] was about 2.4%. The “RH at which the moisture lost at 5% RH is regained” value ([2]; sorption cycle) was “about 44 % RH”.
